Experimental data: patent US5004758A, “Water soluble camptothecin analogs useful for inhibiting the growth of animal tumor cells” (priority 1988, dated 1991)
Structures can show the parent of a compound that is named as a salt. Where two headings read alike, the source gives them in different places.

How the values were obtained:
sc colon carcinoma 26 = test: sc-implanted colon carcinoma 26 in mice; format: in vivo, mouse; conditions: for Tumor growth inhibition (TGI): sc Colon 26, B/ip (Days 1, 5, 9 and 13)
Description: The inoculum varies with the tumor.

sc ADJ-PC6 plasmacytoma = test: sc-implanted ADJ-PC6 plasmacytoma in mice; format: in vivo, mouse; conditions: for Mice without Palpable Tumors: sc ADJ-PC6, B/ip
Protocol: Inhibition of tumor growth (TGI) is based on mean tumor volume of groups of 7 or 8 mice relative to untreated controls. Tumors were measured between Days 12 and 19 (except Day 24 for Colon 51 and Day 31 for Colon 38).
Tumors used in these studies are maintained by serial transplantation in syngeneic strains of mice C57BL/6 for Lewis lung carcinoma, B16 melanoma and its F10 subline, M5076 sarcoma and colon adenocarcinoma 38; BALB/c for colon carcinoma 26, ADJ-PC6 plasmacytoma Madison lung carcinoma and colon adenocarcinoma 51, C3H for mammary adenocarcinoma 16/c. With the exception of the M5076 sarcoma, which is maintained as a i.p ascites cell suspension, all of the tumors were serially transplanted as s.c. solid tumors.
For therapeutic trials, tumors were aseptically removed from donor mice and prepared for implantation s.c. into test animals. The test animals for Lewis lung carcinoma, B16 melanoma and its F10 subline, M5076 sarcoma and colon adenocarcinoma 38 are syngeneic female F1 hybrid B6D2F mice (C57B1/6×DBA/2). ADJ-PC6 plasmacytoma and colon carcinoma 26 are evaluated in female BALB/c mice. Madison lung carcinoma and colon adenocarcinoma 51 are evaluated in syngeneic female F1 hybrid CD2F1 mice (BALB/c×DBA/2). Mammary adenocarcinoma 16/c is evaluated in female C3H mice. The inoculum varies with the tumor. Colon adenocarcinomas 38 is implanted as 2 mm fragments by trochar. M5076 sarcoma and ADJ-PC6 plasmacytoma are implanted as cell suspensions at 5×10^6 and 2×10^6 cells per mouse, respectively. Colon carcinoma 26, colon adenocarcinoma 51, Lewis lung carcinoma, Madison lung carcinoma and B16 melanoma and its F10 subline are implanted as tumor breis prepared as described above in a volume of 0.5 ml. The brei concentration was 10 percent (w:v) except for colon carcinoma 26 for which the brei concentration was 5 percent (w:v). After tumor inoculation, mice are randomized to treatment groups of 7 or 8 mice. In each experiment, there are three groups of untreated control mice.
Drugs are dissolved or suspended in appropriate aqueous vehicles and given by a variety of routes of administration and treatment schedules over a range of dosage levels. Animals are housed in shoebox cages and are monitored daily for mortality. […] Time for tumor measurement is dependent on the different rates of tumor growth of the different tumors: the most rapidly growing tumors such as the Lewis and Madison lung tumors, B16 melanoma and its F10 subline were measured between Days 12 and 16. The slower growing tumors were measured at later time points--17 days for M5076 sarcoma, 16 or 19 days for mammary adenocarcinoma 16/c, 19 days for ADJ-PC6 plasmacytoma and colon carcinoma 26, 24 days for colon adenocarcinoma 51, and 31 days for colon adenocarcinoma 38.

iv L1210 leukemia = conditions: mouse, in vivo
Description: Animals were inoculated iv with 10^6 cells. Increase in lifespan (ILS) is based on median survival time of groups of 6 mice relative to untreated controls.
The protocols utilized for the evaluation of the antitumor activity of Formula (I) compounds are well established and widely utilized by those skilled in the art of assessing the activity of drugs in preclinical tumor models. These studies generally follow the protocols established by the National Cancer Institute as described by Geran et al., Cancer Chemotherapy Reports, Part 3, Vol. 3, 1-103, 1972.
(§2) Tumors used in these studies P388 leukemia, L1210 leukemia and Lewis lung carcinoma--are maintained by serial transplantation in syngeneic strains of mice, DBA/2 for the leukemias and C57B1/6 for Lewis lung carcinoma. The leukemias are serially transplanted i.p. as ascites cell suspensions while the Lewis lung carcinoma is serially transplanted as a s.c. solid tumor.
(§3) For therapeutic trials, tumors were aseptically removed from donor mice and prepared as suspensions for implantation into test animals which for each tumor are syngeneic female F1 hybrid B6D2F1 mice (C57B1/6×DBA/2). The inoculum level varies with the type of tumor: P388 leukemia is inoculated at 10^6 cells per mouse, L1210 leukemia at 10^5 or 10^6 cells per mouse, and Lewis lung carcinoma at 0.25 ml of a 10 percent (w:v) brei. […] After tumor inoculation, mice are randomized to treatment groups of 6 to 8 mice each. In each experiment, there are three groups of untreated control mice.
(§4) Drugs are dissolved or suspended in appropriate aqueous vehicles and given i.p. or i.v. on various treatment schedules over a range of dosage levels. Animals are housed in shoebox cages and monitored daily for mortality for 30 (L1210), 45 (P388) or 60 (Lewis lung) days.

[1] = tested on: ip B16 melanoma/F10 subline; conditions: mouse, in vivo; for Increase in lifespan (ILS): ip
Description: (§5) Tumors used in these studies--P388 leukemia and its doxorbicin--and mitoxanrone-resistant sublines, L1210 leukemia, B16 melanoma, B16 melanoma/F10 subline, M5076 sarcoma and colon carcinoma 26--are maintained by serial transplantation in syngeneic strains of mice. For the leukemias, these tumors are maintained in DBA/2 mice. The M5076 sarcoma, the B16 melanoma and its F10 subline are maintained in C57B1/6 mice and the colon sarcinoma 26 is maintained in BALB/c mice. The leukemias and the M5076 sarcoma are serially transplanted i.p. as ascites cell suspensions while the B16 melanoma lines and the colon carcinoma 26 are serially transplanted as s.c. solid tumors.
(§6) For therapeutic trials, tumors are aseptically removed from donor mice and prepared as suspensions for implantation ip into test animals. The test animals for the colon carcinoma 26 are female BALB/c mice (20-25 gm). The test animals for the other tumor models are syngeneic female F1 hybrid B6D2F1 mice (C57B1/6 x DBA/2). The inoculum level varies with the type of tumor: P388 leukemia is inoculated at 10^6 cells per mouse, L1210 leukemia at 10^5 or 10^6 cells per mouse, M5076 sarcoma at 5×10^6 cells per mouse. For implantation of the B16 melanoma lines and the colon carcinoma 26, s.c. tumors from donor mice are minced and homogenized in loose fitting teflon glass homogenizer to give a tumor brei. The inoculum levels are 0.5 ml of a 10 percent (w:v) brei of the B16 melanoma lines and 0.5 ml of a 5 percent (w:v) brei of colon carcinoma 26. After tumor inoculation, mice randomized to treatment groups comprised of 6-8 mice each. In each experiment, there are three groups of untreated control mice. Drugs are dissolved or suspended in appropriate aqueous vehicles and given by a variety of routes and schedules of administration over a range of dose levels. Animals are housed in shoebox cages and are monitored daily for mortality for 30 (L1210), 45 (P388) or 60 (B16, M5076, colon 26) days.

[2] = tested on: eight cultured human colon tumor cell lines; test: Cytotoxicity in series of eight cultured human colon tumor cell lines; format: cell-based
Protocol: For a brief exposure (2 hours) to the drug, the 50 percent inhibitory concentration ranged from 0.12-2.1 μg/ml.
(§1) The cell lines are used and maintained as monolayer cultures in Minimal Essential Media (Grand Island Biological Co., Grand Island, N.Y.) supplemented with 10% fetal calf serum in a 5% CO2 humidified incubator at 37° C. Various concentrations of a Formula (I) compound under sterile conditions were allowed to react for 2 hours followed by aspiration of medium or were exposed continuously. Plates are incubated for 7 days at 37° C. in a CO2 incubator. Medium was aspirated and cells were fixed and stained with ethanol and Geisma stain. The surviving cell population was determined by scanning the plates with an image analyzer. The percent inhibition of proliferation was determined relative to cells incubated in the absence of drug and the 50 percent inhibitory concentration (IC50) was determined by interpolation.

L1210 Leukemia = test: Cytotoxicity to tumor cells in culture; format: cell-based; conditions: Mus musculus, 2 hr exposure
Protocol: as §1

WIDR = test: Cytotoxicity to tumor cells in culture; format: cell-based; conditions: Homo sapiens
Protocol: as §1

K12/Tr Colon Carcinoma = test: Cytotoxicity to tumor cells in culture; format: cell-based; conditions: K12/Tr rat colon carcinoma
Protocol: as §1

LOVO = test: Cytotoxicity to tumor cells in culture; format: cell-based; conditions: Homo sapiens
Protocol: as §1

B16 Melanoma = test: Cytotoxicity to tumor cells in culture; format: cell-based; conditions: Mus musculus, continuous exposure
Protocol: as §1

SW-620 = test: Cytotoxicity to tumor cells in culture; format: cell-based; conditions: Homo sapiens
Protocol: as §1

HT-29 = test: Cytotoxicity to tumor cells in culture; format: cell-based; conditions: Homo sapiens
Protocol: as §1

CACO-2 = test: Cytotoxicity to tumor cells in culture; format: cell-based; conditions: Homo sapiens
Protocol: as §1

DLD-1 = test: Cytotoxicity to tumor cells in culture; format: cell-based; conditions: Homo sapiens
Protocol: as §1

SKCO-1 = test: Cytotoxicity to tumor cells in culture; format: cell-based; conditions: Homo sapiens
Protocol: as §1

SW-948 = test: Cytotoxicity to tumor cells in culture; format: cell-based; conditions: Homo sapiens
Protocol: as §1

iv P388 leukemia = conditions: mouse, in vivo
Description: as §2, §3, §4

P388/Doxorubicin = test: ip P388/Doxorubicin multidrug resistant subline in mice; conditions: for ILS / NCK (net tumor cell kill): P388/Doxorubicin, ip, Days 1 and 5
Protocol: Increase in lifespan (ILS) is based on median survival time of groups of 6 mice. Net tumor cell kill (NCK) is calculated from median survival time by standard methods, since survival time is a linear function of the log tumor cell burden.
For the leukemias, these tumors are maintained in DBA/2 mice. […] The leukemias and the M5076 sarcoma are serially transplanted i.p. as ascites cell suspensions while the B16 melanoma lines and the colon carcinoma 26 are serially transplanted as s.c. solid tumors.
For therapeutic trials, tumors are aseptically removed from donor mice and prepared as suspensions for implantation ip into test animals. […] The test animals for the other tumor models are syngeneic female F1 hybrid B6D2F1 mice (C57B1/6 x DBA/2). The inoculum level varies with the type of tumor: P388 leukemia is inoculated at 10^6 cells per mouse, L1210 leukemia at 10^5 or 10^6 cells per mouse, M5076 sarcoma at 5×10^6 cells per mouse. […] After tumor inoculation, mice randomized to treatment groups comprised of 6-8 mice each. In each experiment, there are three groups of untreated control mice. Drugs are dissolved or suspended in appropriate aqueous vehicles and given by a variety of routes and schedules of administration over a range of dose levels. Animals are housed in shoebox cages and are monitored daily for mortality for 30 (L1210), 45 (P388) or 60 (B16, M5076, colon 26) days.

ip M5076 sarcoma = test: ip-implanted M5076 sarcoma in mice; format: in vivo, mouse
Description: as §5, §6

[3] = 2 hr exposure, 7-day incubation, read-out: IC50 2 Hr. Exposure
[4] = 168 h, continuous 7-day exposure, read-out: IC50 Continuous Exposure
[5] = ip M5076, single dose on Days 1, 5, 9 and 13 ip, additional study
[6] = ip M5076, single dose on Days 1, 5 and 9 ip, additional study

SMILES: CC[C@@]1(O)C(=O)OCc2c1cc1n(c2=O)Cc2cc3c(CN(C)C)c(O)ccc3nc2-1 [Compound No. 1S, (20 S) 9-Dimethylaminomethyl-10-hydroxycamptothecin Acetate Salt]
- inhibition of tumor growth at the maximally tolerated dose (sc colon carcinoma 26; mouse, in vivo, sc): > 70
- Tumor growth inhibition (TGI) (sc colon carcinoma 26; 5 mg/kg/injection): 39%
- Tumor growth inhibition (TGI) (sc colon carcinoma 26; 10 mg/kg/injection): 72%
- Tumor growth inhibition (TGI) (sc colon carcinoma 26; 20 mg/kg/injection): toxic
- Increase in Lifespan (ILS) or Inhibition of Tumor Growth (TGI) (sc colon carcinoma 26; sc Colon Carcinoma 26, optimal doses and optimal schedules): 72 % TGI
- inhibition of tumor growth at four dose levels at or below the maximally tolerated dose (sc ADJ-PC6 plasmacytoma; mouse, in vivo): > 90
- long term tumor-free survivors at each of the top three dose levels (sc ADJ-PC6 plasmacytoma; mouse, in vivo): 1 of 8
- Tumor growth inhibition (TGI) (sc ADJ-PC6 plasmacytoma; mouse, in vivo, 3.2 mg/kg): 93%
- Tumor growth inhibition (TGI) (sc ADJ-PC6 plasmacytoma; mouse, in vivo, 5.4 mg/kg): 92%
- long-term, tumorfree survivors (sc ADJ-PC6 plasmacytoma; mouse, in vivo, 5.4 mg/kg): 1/8
- Tumor growth inhibition (TGI) (sc ADJ-PC6 plasmacytoma; mouse, in vivo, 9 mg/kg): 100%
- long-term, tumorfree survivors (sc ADJ-PC6 plasmacytoma; mouse, in vivo, 9 mg/kg): 1/8
- long-term, tumorfree survivors (sc ADJ-PC6 plasmacytoma; mouse, in vivo, 15 mg/kg): 1/8
- Tumor growth inhibition (TGI) (sc ADJ-PC6 plasmacytoma; mouse, in vivo, 25 mg/kg): toxic
- Increase in Lifespan (ILS) or Inhibition of Tumor Growth (TGI) (sc ADJ-PC6 plasmacytoma; mouse, in vivo, sc): 100 % TGI
- Mice without Palpable Tumors (sc ADJ-PC6 plasmacytoma; 3.2 mg/kg/injection): 3/8
- Mice without Palpable Tumors (sc ADJ-PC6 plasmacytoma; 5.4 mg/kg/injection): 4/8
- Mice without Palpable Tumors (sc ADJ-PC6 plasmacytoma; 9 mg/kg/injection): 8/8
- Mice without Palpable Tumors (sc ADJ-PC6 plasmacytoma; 15 mg/kg/injection): 7/7
- ILS (iv L1210 leukemia; 3.2 mg/kg): 50%
- Increase in lifespan (ILS) (iv L1210 leukemia; 3.2 mg/kg): 57%
- ILS (iv L1210 leukemia; 5.4 mg/kg): 67%
- Increase in lifespan (ILS) (iv L1210 leukemia; 5.4 mg/kg): 93%
- ILS (iv L1210 leukemia; 9 mg/kg): 83%
- Increase in lifespan (ILS) (iv L1210 leukemia; 9 mg/kg): 136%
- Increase in lifespan (ILS) (iv L1210 leukemia; 15 mg/kg): 171%
- Long-Term Survivors (iv L1210 leukemia; 15 mg/kg): 1/6
- ILS (iv L1210 leukemia; 25 mg/kg): toxic
- Increase in lifespan (ILS) (iv L1210 leukemia; 25 mg/kg): toxic
- Increase in Lifespan (ILS) or Inhibition of Tumor Growth (TGI) (iv L1210 leukemia; iv): Curative
- Long-Term Survivors (iv L1210 leukemia; iv, 1.3 mg/kg): 2/7
- Long-Term Survivors (iv L1210 leukemia; iv, 2.2 mg/kg): 1/7
- Long-Term Survivors (iv L1210 leukemia; iv, 3.6 mg/kg): 5/7
- Long-Term Survivors (iv L1210 leukemia; iv, 24 mg/kg): 4/7
- increases in lifespan at two lower doses [1]: > 40
- Increase in lifespan (ILS) ([1]; 3.2 mg/kg): 37%
- Increase in lifespan (ILS) ([1]; 5.4 mg/kg): 63%
- Increase in lifespan (ILS) ([1]; 9 mg/kg): 68%
- Increase in lifespan (ILS) ([1]; 25 mg/kg): toxic
- IC50 ([2]; 168 h, drug left in medium for full 7-day period, read-out: IC50 values, range over eight lines): 0.0039 to 0.075 µg/mL
- IC50 ([2]; brief exposure (2 hours), read-out: 50 percent inhibitory concentration, range over eight lines): 0.12 to 2.1 µg/mL
- IC50 (L1210 Leukemia): 1.4 µg/mL
- IC50 (WIDR; [3]): 2.1 µg/mL
- IC50 (WIDR; [4]): 0.025 µg/mL
- IC50 (K12/Tr Colon Carcinoma; 2 hr exposure, read-out: IC50 2 Hr. Exposure): 3.9 µg/mL
- IC50 (K12/Tr Colon Carcinoma; continuous exposure, read-out: IC50 Continuous Exposure): 0.084 µg/mL
- IC50 (LOVO; [3]): 0.58 µg/mL
- IC50 (LOVO; [4]): 0.0097 µg/mL
- IC50 (B16 Melanoma): 0.62 µg/mL
- IC50 (SW-620; [3]): 0.12 µg/mL
- IC50 (SW-620; [4]): 0.0065 µg/mL
- IC50 (HT-29; [3]): 0.58 µg/mL
- IC50 (HT-29; [4]): 0.016 µg/mL
- IC50 (CACO-2; [3]): 1.7 µg/mL
- IC50 (CACO-2; [4]): 0.075 µg/mL
- IC50 (DLD-1; [3]): 0.44 µg/mL
- IC50 (DLD-1; [4]): 0.015 µg/mL
- IC50 (SKCO-1; SK-CO-1, 2 hr exposure, 7-day incubation, read-out: IC50 2 Hr. Exposure): 0.23 µg/mL
- IC50 (SKCO-1; SK-CO-1, 168 h, continuous 7-day exposure, read-out: IC50 Continuous Exposure): 0.0039 µg/mL
- IC50 (SW-948; SW948, 2 hr exposure, 7-day incubation, read-out: IC50 2 Hr. Exposure): 0.26 µg/mL
- IC50 (SW-948; SW948, 168 h, continuous 7-day exposure, read-out: IC50 Continuous Exposure): 0.016 µg/mL
- Increase in lifespan (ILS) (iv P388 leukemia; 3.2 mg/kg): 42%
- Increase in lifespan (ILS) (iv P388 leukemia; 5.4 mg/kg): 58%
- ILS (iv P388 leukemia; 15 mg/kg): 125
- Increase in lifespan (ILS) (iv P388 leukemia; 15 mg/kg): 132%
- cures (iv P388 leukemia; 15 mg/kg): 1/6
- Long-Term Survivors (iv P388 leukemia; 25 mg/kg): 2/6
- Increase in Lifespan (ILS) or Inhibition of Tumor Growth (TGI) (iv P388 leukemia; iv): Curative
- Increase in lifespan (ILS) (iv P388 leukemia; iv, 7.9 mg/kg): 65%
- Increase in lifespan (ILS) (iv P388 leukemia; iv, 14 mg/kg): 145%
- Long-Term Survivors (iv P388 leukemia; iv, 19 mg/kg): 2/6
- Increase in lifespan (ILS) (iv P388 leukemia; iv, 25 mg/kg): toxic
- ILS (P388/Doxorubicin; 3.2 mg/kg): 14%
- NCK (net tumor cell kill) (P388/Doxorubicin; 3.2 mg/kg): 0 log
- ILS (P388/Doxorubicin; 5.4 mg/kg): 33%
- NCK (net tumor cell kill) (P388/Doxorubicin; 5.4 mg/kg): 0 log
- ILS (P388/Doxorubicin; 9 mg/kg): 90%
- NCK (net tumor cell kill) (P388/Doxorubicin; 9 mg/kg): 2.2 log
- ILS (P388/Doxorubicin; 15 mg/kg): 176%
- NCK (net tumor cell kill) (P388/Doxorubicin; 15 mg/kg): 6.0 log
- ILS (P388/Doxorubicin; 25 mg/kg): toxic
- sensitivity / resistance of subline (P388/Doxorubicin; P388/doxorubicin in mice): retained sensitivity
- Increase in lifespan (ILS) (ip M5076 sarcoma; ip M5076, C/ip (every 3 hours x4 on Days 1, 5 and 9), 0.62 mg/kg/injection): 70%
- Increase in lifespan (ILS) (ip M5076 sarcoma; ip M5076, C/ip (every 3 hours x4 on Days 1, 5 and 9), 1.2 mg/kg/injection): 75%
- Increase in lifespan (ILS) (ip M5076 sarcoma; ip M5076, C/ip (every 3 hours x4 on Days 1, 5 and 9), 5 mg/kg/injection): toxic
- Increase in lifespan (ILS) (ip M5076 sarcoma; ip M5076, C/ip (every 3 hours x4 on Days 1, 5 and 9), 10 mg/kg/injection): toxic
- Increase in lifespan (ILS) (ip M5076 sarcoma; ip M5076, C/sc (every 3 hours x4 on Days 1, 5 and 9), 0.62 mg/kg/injection): 36%
- Increase in lifespan (ILS) (ip M5076 sarcoma; ip M5076, C/sc (every 3 hours x4 on Days 1, 5 and 9), 1.2 mg/kg/injection): 70%
- Increase in lifespan (ILS) (ip M5076 sarcoma; ip M5076, C/sc (every 3 hours x4 on Days 1, 5 and 9), 5 mg/kg/injection): toxic
- Increase in lifespan (ILS) (ip M5076 sarcoma; ip M5076, C/sc (every 3 hours x4 on Days 1, 5 and 9), 10 mg/kg/injection): toxic
- ILS (ip M5076 sarcoma; [5]): 71%
- cures (ip M5076 sarcoma; [5]): 1/8
- ILS (ip M5076 sarcoma; [6]): 75%
- cures (ip M5076 sarcoma; [6]): 1/8
- ILS (ip M5076 sarcoma; mouse, in vivo): 57
- Long-Term Survivors (ip M5076 sarcoma; mouse, in vivo, 1.2 mg/kg): 1/8
- Long-Term Survivors (ip M5076 sarcoma; mouse, in vivo, ip, 0.62 mg/kg): 1/8
- Long-Term Survivors (ip M5076 sarcoma; mouse, in vivo, ip, 1.2 mg/kg): 1/8
